These results are taken from patent US9539341B2, “Methods and compositions for targeting adipose cells in mammals” (Board of Regents, the University of Texas System, priority 2011, dated 2017).

Entries after “also recorded” stand apart in the source; their conditions may differ.

The subject of experiment [1] is C34+CD31−CD45− cells isolated from WAT. Kind of experiment: In vivo competition (re-homing) assay of 11 admixed phage clones, WAT. More on the design: species or system mouse. The settings on record: equal amounts of 11 phage clones mixed and injected; percent of sequenced clones on C34+CD31−CD45− cells from WAT. As for the experimental part:
(§1) For competitive homing experiment, 5×10^9 TU for each of the 11 chosen phage clones were admixed and the combined 5.5×10^10 TU was injected. For validation of individual clones, 1×10^10 TU for each phage clones was injected. After 1 hr of circulation and heart perfusion with 10 ml of phosphate buffer saline (PBS), WAT, tibia/femurs, bone-associated skeletal muscle, and lungs were collected. Bone marrow was isolated by flushing tibia/femurs. Hematopoietic and endothelial cells were depleted from cell suspensions of each organ by Dynabeads (Invitrogen) coated with anti-TER119, anti-CD31, and anti-CD45 antibodies (BD Biosciences), after which the remaining cells were processed by FACS to purify CD34+CD31−CD45− cells. Bound phage were recovered by infecting K91 E. coli, quantified by phage transforming unit (TU) counting, and processed for sequencing of the peptide-coding DNA as described in Arap, et al. 2002, ibid and Kolonin, et al., 2006, ibid. For identification of conserved peptide motifs, ClustalW2 software was used.
(§2) After 4 rounds of synchronous in vivo biopanning, eight CX7C and CX8C sequences repeatedly recovered from ASC with frequency above 1% were identified, which were termed WAT1 through WAT8 (see Table 1 below). In parallel, a matched number of peptide inserts homing to lung stromal cells (LSC) were sequenced as a control. None of the WAT-homing peptides were enriched in the lung. Four sequences repeatedly recovered in the lung with frequency above 1%, were termed LU1 through LU4 (see Table 1 below). […] Because the focus of this study is WAT-specific MSC, this clone was excluded from further analysis. Other selected peptides were subjected to an in vivo competition assay in order to identify those with the highest specificity of binding. Equal amounts of phage for the 11 clones displaying peptides WAT1 through WAT7 (SEQ ID NOS: 1-14) and LU1 through LU4 (SEQ ID NOS: 17-24) were admixed and injected into a mouse. Homing specificity of each clone was assessed by quantifying frequency of phage coding for each peptide selected on C34+CD31−CD45− cells isolated from either WAT or lung.

The test system of experiment [2] is C34+CD31−CD45− cells isolated from lung. Nature of the experiment: In vivo competition (re-homing) assay of 11 admixed phage clones, lung. The settings on record: equal amounts of 11 phage clones mixed and injected; percent of sequenced clones on C34+CD31−CD45− cells from lung. More on the design: species or system mouse. As for the experimental part:
as §1, §2

The subject of experiment [3] is CD34+CD31−CD45− cells (MSC) from WAT. Nature of the experiment: Synchronous in vivo phage display biopanning, clones recovered from WAT MSC (ASC). More on the design: species or system mouse. The settings on record: percent of sequenced phage clones carrying the insert in WAT after 4 rounds of synchronous in vivo biopanning on CD34+CD31−CD45− cells.
From the text: (§3) Phage Library Screening: Random peptide libraries based on the M13-derived bacteriophage vector fUSE5 displaying inserts CX7C, CX8C, and CX9C on the pIII protein were admixed (1:1:1) to the combined 10^10 TU of mixed library for the screen performed based on the synchronous biopanning in vivo upon tail vein injection (see for example, US20050074747 and Arap, et al., Nat. Med. 8:121-127, 2002; Kolonin, et al., FASEB J. 20: 979-981, 2006).
as §1
(§4) Methods for isolation of MSC by fluorescence-activated cell sorting (FACS) from organ cell suspensions based on the C34+CD31−CD45− immunophenotype (FIG. 8B) were combined with phage display and optimized for ASC. By adapting the previously described “synchronous in vivo biopanning” method of (Kolonin et al., 2006, ibid), a mixture of cyclic CX7C, CX8C, and CX9C (C: disulfide-bonded cysteines; X: any amino acid) random peptide libraries was screened (FIG. 1A). This approach made it possible to select MSC probes from the pool of over 10^11 combinatorial peptides. Throughout the screen, progressive enrichment in the number of phage particles recovered on MSC from WAT, as well as from the chosen control organs: lung, bone marrow, and skeletal muscle (FIG. 1B) was observed.
as §2
(§5) Shown in Table 1 above are the percent (%) of the sequenced phage clones that carried the indicated WAT or LU insert present within WAT (% in WAT) or lung (% in LUNG) following 4 rounds of synchronous in vivo biopanning on CD34+CD31−CD45− cells.

In experiment [4] the test system is CD34+CD31−CD45− cells (MSC) from lung. Kind of experiment: Synchronous in vivo phage display biopanning, clones recovered from lung MSC (LSC). Also noted: species or system mouse. The settings on record: percent of sequenced phage clones carrying the insert in lung after 4 rounds of synchronous in vivo biopanning on CD34+CD31−CD45− cells.
From the text: as §3, §1, §4, §2, §5

Experiment [5] deals with WAT CD34+CD31−CD45− cells (ASC) versus lung CD34+CD31−CD45− cells (LSC). Kind of experiment: Homing of individual phage-peptide clones injected separately, TU on WAT vs lung MSC. As to conditions: individual phage clones injected into mice, FIG. 1C. Type of experiment: in vivo, mouse. The source says: FIGS. 1A-C depict the screen for MSC-homing peptides. (A) depicts the schematic for a screen for peptides homing to organ-specific MSC populations. […] In every selection round, erythroid (TER119+), endothelial (CD31+) and hematopoietic (CD45+) cells were immunodepleted and then FACS was used to collect CD34+CD31−CD45− cells (MSC) from WAT, lung, bone marrow, and skeletal muscle. (B) Phage-peptides bound to WAT MSC (ASC), in parallel with phage-peptides bound to MSC of control organs, were quantified, amplified, pooled, and used for the next round of biopanning. Increased recovery of phage transforming units (TU) in successive rounds reflects the enrichment of phage-peptides homing to MSC of individual target organs. (C) Relative specificity of ASC homing assessed for individual phage-peptide clones separately injected into mice as a ratio of TU recovered on WAT to CD34+CD31−CD45− to TU recovered on lung CD34+CD31−CD45− cells. Fd-Tet: control insertless phage. Values shown are mean±SD for triplicate measurements.
For competitive homing experiment, 5×10^9 TU for each of the 11 chosen phage clones were admixed and the combined 5.5×10^10 TU was injected. […] Bound phage were recovered by infecting K91 E. coli, quantified by phage transforming unit (TU) counting, and processed for sequencing of the peptide-coding DNA as described in Arap, et al. 2002, ibid and Kolonin, et al., 2006, ibid. […]

Take GSGGMSPS [WAT-6]: the “Re-home to WAT (%)” value in experiment [1] is listed as 0%. In addition, in experiment [2], the “Re-home to Lung (%)” value came to 1.9%. For the same substance, in experiment [3], the “% in WAT” value is 1.9%. Further, the “% in LUNG” value in experiment [4] worked out at 0%.

On to YEGSEVS [WAT-4], for which the “Re-home to WAT (%)” value in experiment [1] worked out at 0%. Moreover, in experiment [2], the “Re-home to Lung (%)” value turned out to be 2.9%. Besides, the “% in WAT” value in experiment [3] worked out at 2.9%. Moreover, the “% in LUNG” value in experiment [4] was found to be 0%.

On to LGVGPGF [LU-3], for which the “Re-home to WAT (%)” value in experiment [1] is on record as 0%. Also, the “Re-home to Lung (%)” value in experiment [2] is recorded as 1.1%. Besides, the “% in WAT” value in experiment [3] was determined as 0%. Moreover, the “% in LUNG” value in experiment [4] worked out at 5.2%.

With GQWLGNWL [WAT-8], in experiment [1], the “Re-home to WAT (%)” value is listed as 0%. The “Re-home to Lung (%)” value in experiment [2] was determined as 13.6%. Also, the “% in WAT” value in experiment [3] came out at 13.6%. In addition, the “% in LUNG” value in experiment [4] amounted to 0%. The “specificity of homing to ASC compared to lung MSC” value in experiment [5] is recorded as “modest preference for ASC”.

On to CWLGEWLGC [mPep], for which the “specificity of homing to ASC compared to lung MSC” value in experiment [5] is “modest preference for ASC; also recorded: did not display any WAT specificity”.

Turning to AVYRSTG [LU-1], the “Re-home to Lung (%)” value in experiment [2] was determined as 52.2%. The “% in WAT” value in experiment [3] is listed as 0%. Also, the “% in LUNG” value in experiment [4] is 71.6%.

In the case of RFLLPQG [WAT-3], the “Re-home to WAT (%)” value in experiment [1] is on record as 0%. Moreover, the “Re-home to Lung (%)” value in experiment [2] came to 3.9%. In addition, the “% in WAT” value in experiment [3] was 3.9%. In addition, in experiment [4], the “% in LUNG” value came to 0%.

Consider IRGKAGR [LU-4], for which the “Re-home to WAT (%)” value in experiment [1] was 0%. Besides, the “Re-home to Lung (%)” value in experiment [2] is listed as 1.1%. Moreover, in experiment [3], the “% in WAT” value was found to be 0%. In addition, the “% in LUNG” value in experiment [4] came out at 5.2%.

KHYGGGVA [WAT-1]: the “Re-home to WAT (%)” value in experiment [1] amounted to 1.1%. The “Re-home to Lung (%)” value in experiment [2] is given as 9.1%. Besides, the “% in WAT” value in experiment [3] is 9.1%. Further, the “% in LUNG” value in experiment [4] worked out at 0%.

In the case of LRQGNPT [WAT-5], the “Re-home to WAT (%)” value in experiment [1] is recorded as 0%. The “Re-home to Lung (%)” value in experiment [2] was determined as 1.9%. In addition, in experiment [3], the “% in WAT” value is on record as 1.9%. The “% in LUNG” value in experiment [4] was 0%.
